Values quoted from earlier work as cited in patent publication US6559138B1, “3-Desoxy-vitamin D3 analog esters” (Syntex (U.S.A.) LLC, priority 2001, dated 2003).

Key:
[1] = tested on: women with postmenopausal osteoporosis
[2] = tested on: steroid-induced bone loss; conditions: calcitriol 0.5 to 1.0 micrograms/day plus calcium 1000 mg/day, with or without intranasal calcitonin 400 IU/day

hypercalcaemia ([1]; at recommended dosages): infrequent and mild
SMILES: C=C1/C(=C\C=C2/CCC[C@]3(C)[C@@H]([C@H](C)CCCC(C)(C)O)CC[C@@H]23)C[C@@H](O)C[C@@H]1O [calcitriol, 1,25-dihydroxyvitamin D3]
lower rate of new vertebral fractures compared with patients receiving elemental calcium 1000 mg/day ([1]; calcitriol 0.25 microgram twice daily, after 3 years of treatment, patients with mild to moderate disease): 3 fold | tolerability ([1]; overall): well tolerated | effect on steroid-induced bone loss [2]: prevented steroid-induced bone loss
